The source of these data is ChEMBL document CHEMBL1140284, “A three-dimensional pharmacophore model for 5-hydroxytryptamine6 (5-HT6) receptor antagonists” (J Med Chem, 2005).

Molecules are shown by their SMILES. pKi: −log10 of the molar value.

The target in this assay is 5-hydroxytryptamine receptor 6 (Homo sapiens, UniProt P50406). The assay is described as follows: Binding affinity for human 5-hydroxytryptamine 6 receptor.
5-hydroxytryptamine receptor 6, sequence (P50406 whole entry): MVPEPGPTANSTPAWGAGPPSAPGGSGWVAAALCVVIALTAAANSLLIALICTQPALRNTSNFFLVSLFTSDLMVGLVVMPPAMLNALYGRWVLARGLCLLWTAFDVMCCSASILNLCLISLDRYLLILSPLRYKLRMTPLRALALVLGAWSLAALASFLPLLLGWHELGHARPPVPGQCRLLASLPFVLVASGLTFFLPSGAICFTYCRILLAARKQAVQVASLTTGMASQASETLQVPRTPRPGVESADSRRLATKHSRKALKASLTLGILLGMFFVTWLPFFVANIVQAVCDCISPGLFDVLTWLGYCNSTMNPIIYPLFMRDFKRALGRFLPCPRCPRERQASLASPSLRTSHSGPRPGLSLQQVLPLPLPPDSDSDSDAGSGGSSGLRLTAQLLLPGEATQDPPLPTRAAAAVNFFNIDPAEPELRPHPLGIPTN
As a reminder, the pKi is the Ki on a negative log10 scale, so that one unit is a factor of ten. Consider `COc1cc(N)cc(NS(=O)(=O)c2ccc(N)cc2)c1`, for which the pKi was 7.40. In the case of `Nc1ccc(S(=O)(=O)Nc2cccc3[nH]ccc23)cc1` it was 7.20. As for `Nc1ccc(S(=O)(=O)c2cc(Br)nc(Br)c2)cc1`, the figure is 7.30; as for `NCc1cn(S(=O)(=O)c2ccc(N)cc2)c2ccccc12`, 8.20. As for `CCOC(=O)c1[nH]c2ccccc2c1CCN`, the pKi was 7.70. In turn, `CON1CCN(c2ccc(S(=O)(=O)c3cccc4ccccc34)cc2)CC1` had a pKi of 9.90. This pKi lies 2.20 log units higher than the previous one. Regarding `O=S(=O)(Nc1ccc2ccn(CCN3CCCC3)c2c1)c1c(Cl)nc2sccn12`, the pKi was 7.30. As for `NCc1cn(S(=O)(=O)c2ccccc2)c2ccccc12`, the figure is 8.50.

Consider `O=S(=O)(c1ccc2ccccc2c1)n1ccc2ccc(N3CCN4C=CCC4C3)cc21` (stereo unspecified), for which the pKi is 9.70. In the case of `Nc1ccc(S(=O)(=O)Nc2ccc3cc[nH]c3c2)cc1` it was 5.90; in that of `CN(C)CCc1cn(S(=O)(=O)c2ccccc2)c2ccccc12`, 8.50; in that of `CSc1nc2ccccn2c(=N)c1S(=O)(=O)c1ccccc1`, 8.40.

In turn, `COc1ccc(NS(=O)(=O)c2cccc(I)c2)cc1N1CCNCC1` had a negative logarithm of the Ki (pKi) of 9.10. This pKi is 0.70 log units higher than that of the compound before. As for `NCCc1c[nH]c2ccc(NS(=O)(=O)c3ccc4c(Cl)cccc4c3)cc12`, the figure is 9.70. As for `Nc1ccc(S(=O)(=O)Nc2cc(N)nc(Br)c2)cc1`, the figure is 7.30. Compound `CN(C)CCn1ccc2cc(NS(=O)(=O)c3c(Cl)nc4sccn34)ccc21` showed a pKi of 8.70. As for `O=S(=O)(c1cccc2ccccc12)n1ccc2ccc(C3=CCN4CCCC4C3)cc21` (stereo unspecified), the figure is 8.90.

Take `COc1ccc2[nH]c(-c3ccccc3)c(CCN(C)C)c2c1`: the negative-log Ki (pKi) was 7.30. `O=S(=O)(Nc1ccc2c(ccn2CCCN2CCCCC2)c1)c1c(Cl)nc2sccn12` showed a pKi of 6.00. In the case of `CC[N+](C)(CC)CCc1cn(S(=O)(=O)c2ccc(NC(C)=O)cc2)c2ccc(OC)cc12` it was 6.60; in that of `Nc1ccc(S(=O)(=O)n2c3c(c4ccccc42)CCCC3)cc1`, 7.50; in that of `O=S(=O)(c1ccccc1)c1cc2c(N3CCNCC3)cccc2[nH]1`, 9.90. With `COc1ccc2c(c1)c(CCN(C)C)cn2S(=O)(=O)c1ccccc1`, the pKi is 8.60. Take `COc1cccc(-c2noc(-c3[nH]c4ccccc4c3CCN)n2)c1`: the pKi was 8.90.

In turn, `COc1ccc2c(c1)c(CCN)cn2S(=O)(=O)c1cccc2ccccc12` had a pKi of 9.10. With `COc1cccc2c(CCN)cn(S(=O)(=O)c3ccc4ccccc4c3)c12`, the pKi is 8.30. In the case of `Cc1ccc(S(=O)(=O)n2cc3c4c(cccc42)[C@H](O)[C@@H](N(C)C)C3)cc1` it was 8.10; in that of `Nc1ccc(S(=O)(=O)Nc2cccc(N)c2)cc1`, 6.20; in that of `CNc1cc(NS(=O)(=O)c2ccc(N)cc2)cc(NC)n1`, 7.80.

Take `Cc1c(S(=O)(=O)Nc2ccc3ncc(N4CCN(C)CC4)cc3c2)sc2ccc(Cl)cc12`: the pKi is 7.10. As for `Cc1cn(S(=O)(=O)c2ccc(N)cc2)c2ccccc12`, the figure is 7.90.
